The target in series [1] is T1, Calcitonin gene-related peptide type 1 receptor (Homo sapiens, UniProt O60894+Q16602). In words: Displacement of […] expressed in HEK293 cells coexpressing human RAMP1. The format is cell-based.
Series [2] has as its target T1, Calcitonin gene-related peptide type 1 receptor. In words: Antagonist activity at human CLR expressed in human HEK293 cells coexpressing human RAMP1 assessed as Inhibition of CGRP-induced cAMP production. It counts as functional, cell-based.
For series [3] the target is unchanged. The experiment in a line: Antagonist activity at human CLR expressed in human HEK293 cells coexpressing human RAMP1 assessed as Inhibition of CGRP-induced cAMP production in the presence of 50% human serum. The format is functional, cell-based.
A short description of series [4]: Oral bioavailability in rat at 10 mg/kg in presence of methylcellulose. The format is ADME, organism-based. As to conditions: in vivo.
Series [5] is described as follows: Half life in rat at 2 mg/kg, iv. It counts as ADME, organism-based. Also noted: dose 2 mg/kg, route intravenous. As to conditions: in vivo.
Series [6] can be described thus: Clearance in rat at 10 mg/kg, po or 2 mg/kg, iv. The format is ADME, organism-based. Conditions: in vivo.
The nature of series [7]: Clearance in rhesus monkey at 2 mg/kg, po and 0.5 mg/kg, iv. As to conditions: in vivo. It counts as ADME, organism-based, Macaca mulatta.
Series [8] can be described thus: Oral bioavailability in rat at 10 mg/kg in presence of lmwitor:tween. It counts as ADME, organism-based. Conditions: in vivo.
Series [9] is described as follows: Oral bioavailability in dog at 1 mg/kg in presence of methylcellulose. It counts as ADME, organism-based, Canis lupus familiaris. Conditions: in vivo.
Series [10] can be described thus: Oral bioavailability in rhesus monkey at 2 mg/kg in presence of methylcellulose. It counts as ADME, organism-based, Macaca mulatta. As to conditions: in vivo.
The nature of series [11]: Half life in rat at 2mg/kg, iv. Conditions: in vivo. It counts as ADME, organism-based.
The nature of series [12]: Half life in dog at 0.5 mg/kg, iv. The format is ADME, organism-based, Canis lupus familiaris. More on the design: dose 0.5 mg/kg, route intravenous. As to conditions: in vivo.
Series [13] is described as follows: Half life in rhesus monkey at 0.5 mg/kg, iv. It counts as ADME, organism-based, Macaca mulatta. More on the design: dose 0.5 mg/kg, route intravenous. Conditions: in vivo.
The nature of series [14]: Clearance in rat at 10 mg/kg, po and 2 mg/kg, iv. It counts as ADME, organism-based. As to conditions: in vivo.
Series [15] can be described thus: Clearance in dog at 1 mg/kg, po and 0.5 mg/kg, iv. It counts as ADME, organism-based, Canis lupus familiaris. As to conditions: in vivo.
The test system of series [16] is Rhesus monkey. The experiment in a line: Inhibition of capsaicin-induced vasodilation in orally dosed rhesus monkey at 5.5 uM plasma level. It counts as functional, organism-based. Conditions: Macaca mulatta.
The test system of series [17] is Rhesus monkey. In words: Inhibition of capsaicin-induced vasodilation in orally dosed rhesus monkey. It counts as functional, organism-based. As to conditions: Macaca mulatta.
Series [18] in a line: Oral bioavailability in rat at 5 mg/kg in presence of lmwitor:tween. The format is ADME, organism-based. Conditions: in vivo.
Series [19] is described as follows: Half life in rat at 1 mg/kg, iv. The format is ADME, organism-based. Also noted: dose 1 mg/kg, route intravenous. As to conditions: in vivo.
Series [20] is described as follows: Clearance in rat at 5 mg/kg, po or 1 mg/kg, iv. It counts as ADME, organism-based. Conditions: in vivo.
Series [21] is described as follows: Oral bioavailability in rat at 5 mg/kg in presence of PEG400:water. It counts as ADME, organism-based. As to conditions: in vivo.

Activity calls are given as the source filed them. No cut-off for these calls is given here.

Results on 17 compounds are retold here after ChEMBL document CHEMBL1156995, “Identification of potent, highly constrained CGRP receptor antagonists” (Bioorg Med Chem Lett, 2010).

T1 sequence (Q16602 whole entry, one chain of several): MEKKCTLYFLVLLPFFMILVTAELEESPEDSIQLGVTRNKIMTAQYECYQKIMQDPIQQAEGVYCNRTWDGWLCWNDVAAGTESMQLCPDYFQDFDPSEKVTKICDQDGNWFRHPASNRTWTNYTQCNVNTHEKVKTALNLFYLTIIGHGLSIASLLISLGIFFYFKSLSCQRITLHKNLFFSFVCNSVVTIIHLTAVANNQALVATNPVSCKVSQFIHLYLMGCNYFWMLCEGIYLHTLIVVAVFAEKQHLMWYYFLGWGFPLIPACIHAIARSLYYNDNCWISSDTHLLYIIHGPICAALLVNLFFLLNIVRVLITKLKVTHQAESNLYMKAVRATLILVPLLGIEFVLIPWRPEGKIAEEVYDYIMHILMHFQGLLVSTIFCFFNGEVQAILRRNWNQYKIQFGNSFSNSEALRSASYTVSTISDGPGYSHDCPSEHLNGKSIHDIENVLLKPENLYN

In general, Ki refers to the dissociation constant of the complex between target and ligand, obtained from inhibition or displacement. Usually IC50 stands for the concentration at which inhibition is half-maximal. For orientation: bioavailability means dose-corrected exposure relative to a reference, in per cent. A word on the half-life: it is the time in which the quantity being followed falls by half. For the compound `O=C1CCc2ccccc2N1Cc1ccc2cc3c(cc2n1)C[C@@]1(C3)C(=O)Nc2ncccc21`, the Ki in [1] amounted to 1.4 nM. The results for the half-inhibitory concentration (IC50) in [2] and in series [3] were 4.7 nM and 81 nM, respectively. The bioavailability in [4] is 3%. The same compound showed a half-life in series [5] of 21 min. Moreover, the clearance in [6] is 56 mL/min/kg.
On to `CCC12CC(=O)Nc3cccc(c31)N(Cc1ccc3cc4c(cc3n1)C[C@@]1(C4)C(=O)NC(=O)N1C)C2` (some centres undefined), for which, in series [1], the Ki was determined as 1.3 nM. The half-inhibitory concentration (IC50) in series [2] came out at 7.2 nM; in [3], 44 nM. In series [4], the bioavailability worked out at 65%. The same compound gave a half-life in [5] of 66 min. In series [6], this compound yielded a clearance of 44 mL/min/kg.
With `CN1C(=O)NC(=O)[C@]12Cc1cc3ccc(Cn4c(=O)n(-c5ccccn5)c5ccccc54)nc3cc1C2`, the Ki in series [1] worked out at 17 nM.
In general, EC90 refers to the concentration at which the effect reaches the 90% level. As for `CN1C(=O)NC(=O)[C@@]12Cc1cc3ccc(CN4CC5(C)CC(=O)Nc6cccc4c65)nc3cc1C2` (some centres undefined), the clearance stood at 5.6 mL/min/kg in series [7], 14 mL/min/kg in series [6], 14 mL/min/kg in series [14] and 1.6 mL/min/kg in [15]. In series [1], the inhibitory constant (Ki) came to 0.52 nM. The concentration for half-maximal inhibition (IC50) in series [2] amounted to 2.2 nM; in [3], 6.5 nM. Besides, the bioavailability in series [4] is 45%; in series [8] it was 34%; in series [9], 59%; in series [10] it was 38%. Also, the half-life in series [5] is 96 min; in [11], 96 min; in [12] it was 366 min; in series [13] it was 102 min. For the same compound, the inhibition result in the series with Rhesus monkey [16] is “Active”. Besides, it took 5.5 µM to reach the 90% level with Rhesus monkey [17] (EC90).
As to `CN1C(=O)Cn2c(=O)n(Cc3ccc4cc5c(cc4n3)C[C@@]3(C5)C(=O)NC(=O)N3C)c3cccc1c32`, the inhibitory constant (Ki) in [1] was determined as 3 nM. The half-inhibitory concentration (IC50) in series [2] turned out to be 33 nM; in series [3] it was 1200 nM.
For `O=C1CC2CN(Cc3ccc4cc5c(cc4n3)C[C@@]3(C5)C(=O)Nc4ncccc43)c3cccc(c32)N1` (some centres undefined), the inhibitory constant (Ki) in series [1] was 0.55 nM. Besides, the values for the IC50 in [2] and in series [3] were 0.86 nM and 4.1 nM, respectively. In addition, the bioavailability in series [18] is 8%. In series [19], this compound gave a half-life of 19.2 min. In series [20], this compound registered a clearance of 19 mL/min/kg.
As for `CN1C(=O)Cn2c(=O)n(Cc3ccc4cc5c(cc4n3)C[C@@]3(C5)C(=O)Nc4ncccc43)c3cccc1c32`, the inhibition constant (Ki) in [1] was found to be 0.41 nM. Moreover, the results for the IC50 in [2] and in series [3] were 1.2 nM and 95 nM, respectively.
In the case of `CN1C(=O)NC(=O)[C@@]12Cc1cc3ccc(CN4C(=O)CCc5ccccc54)nc3cc1C2`, the Ki in [1] stood at 8.9 nM. Further, the half-maximal inhibitory concentration (IC50) in [2] stood at 50 nM; in [3] it was 850 nM. In addition, the bioavailability in [4] came to 10%. In series [5], the half-life is 42 min. Besides, in [6], the clearance is 38 mL/min/kg.
For the compound `CCC12CC(=O)Nc3cccc(c31)N(Cc1ccc3cc4c(cc3n1)C[C@@]1(C4)C(=O)Nc3ncccc31)C2` (some centres undefined), the Ki in series [1] came to 0.072 nM. The concentration for half-maximal inhibition (IC50) came out at 0.68 nM in series [2] and 1.5 nM in [3]. Also, in series [8], the bioavailability amounted to 9%. The compound also had a half-life in series [5] of 36.6 min. The compound further yielded a clearance in series [6] of 11 mL/min/kg.
As to `CN1C(=O)NC(=O)[C@]12Cc1ccc(NC(=O)Cn3c(=O)n(-c4ccccn4)c4ccccc43)c(F)c1C2`, the inhibition constant (Ki) in series [1] came to 55 nM.
For `CN1C(=O)NC(=O)C12Cc1cc3ncc(Cn4c(=O)n(-c5ccccn5)c5ccccc54)nc3cc1C2` (centres undefined), the Ki in series [1] worked out at 185 nM.
As for `CN1C(=O)NC(=O)[C@@]12Cc1cc3ccc(CN4CC5CC(=O)Nc6cccc4c65)nc3cc1C2` (some centres undefined), in series [1], the Ki worked out at 1.5 nM. Besides, the half-inhibitory concentration (IC50) in series [2] was found to be 7.3 nM; in [3], 43 nM. For the same compound, the bioavailability in series [8] was 41%. This compound had a half-life in series [5] of 66 min. In series [6], this compound gave a clearance of 11 mL/min/kg.
Take `CN1C(=O)NC(=O)[C@@]12Cc1cc3ccc(Cn4c(=O)n5c6c(cccc64)NC(=O)C5)nc3cc1C2`: the inhibitory constant (Ki) in series [1] was found to be 0.3 nM. Moreover, the half-inhibitory concentration (IC50) in series [2] amounted to 1.7 nM; in series [3], 14 nM.
On to `CC12CC(=O)Nc3cccc(c31)N(Cc1ccc3cc4c(cc3n1)C[C@@]1(C4)C(=O)Nc3ncccc31)C2` (some centres undefined), for which the Ki in series [1] stood at 0.12 nM. The figures for the half-inhibitory concentration (IC50) in [2] and in [3] were 0.52 nM and 1.3 nM, respectively. Further, in [8], the bioavailability is 6%. For the same compound, the half-life in series [5] is 37.2 min. In series [6], this compound came in with a clearance of 28 mL/min/kg.
For the compound `CN1C(=O)NC(=O)[C@@]12Cc1cc3nc(Cn4c(=O)n(-c5ccccn5)c5ccccc54)oc3cc1C2`, the inhibitory constant (Ki) in series [1] was determined as 6000 nM.
In the case of `O=C1Cn2c(=O)n(Cc3ccc4cc5c(cc4n3)C[C@@]3(C5)C(=O)Nc4ncccc43)c3cccc(c32)N1`, the inhibition constant Ki in [1] is 0.023 nM. The half-inhibitory concentration (IC50) was found to be 0.077 nM in series [2] and 2.5 nM in series [3]. The bioavailability in series [21] is 0%. For the same compound, the half-life in [19] was 27 min. In addition, the clearance in series [20] is 40 mL/min/kg.
Take `CN1C(=O)NC(=O)[C@]12Cc1cc(F)c(NC(=O)Cn3c(=O)n(-c4ccccn4)c4ccccc43)cc1C2`: the Ki in series [1] was 720 nM.
